Experimental data published in patent publication US20130345249A1, “Formulations for the prevention and treatment of Wolbachia-related disease” (priority 2011, published 2013).

Key:
[1] = system: Wolbachia; test: Microscopy-based high-throughput screen in Wolbachia-infected Drosophila tissue culture cells; assay type: cell-based; details: 100 uM in media, 3 days incubation
Method: In collaboration with the microscope company Molecular Devices, we optimized journaling software that analyzes the level of cytoplasmic DAPI (Wolbachia) fluorescence per cell in all wells of the plate. […] In this pilot, compounds were added to Wolbachia-infected cells at a final concentration of 100 uM in media and allowed to incubate for 3 days. Cells were then fixed, stained, imaged, and analyzed by automated machinery.

[2] = system: Wolbachia; test: Confocal imaging of Wolbachia in treated Brugia malayi worms; assay type: in vivo
[3] = system: Brugia malayi; test: Brugia malayi drug feeding assay (worm mortality); assay type: in vivo
Text: Small molecules of interest found by the primary tissue culture screen must be tested in animal models to determine their relevance to Wolbachia in vivo. Because Wolbachia are vital endosymbionts of Brugia malayi worms that cause Elephantiasis, the next important step was to validate whether compounds found in the high-throughput screen could affect the viability of those worms. To assay this, we performed a pilot feeding assay by distributing Brugia malayi into 12-well plates containing tissue culture media and different compounds added to a final concentration of 100 uM. […] In this feeding assay, we observed that worms fed with pararosanaline pamoate ceased movement within 2 hours, whereas all other treatments took substantially longer to affect the worms (FIG. 3). Our preliminary dose-response tests of pararosanaline pamoate indicate that the lethal feeding dose lies between 25 uM and 10 uM.

[4] = system: Wolbachia; test: Wolbachia titer in ovarian tissues of fed D. melanogaster (confocal microscopy, image-based quantification); assay type: in vivo, Wolbachia (in Drosophila melanogaster)
Method: As the next validation step, it was important to determine whether the compounds found in our screen can cure a host of Wolbachia while also permitting host viability. To investigate this, we first performed a feeding assay using Wolbachia-infected Drosophila melanogaster flies. Flies were provided with fly food containing pararosanaline pamoate at concentrations of 100 uM or less, and viability was scored over time. […] To then determine whether the treatment affected the quantity of Wolbachia carried by the D. melanogaster host, we fed pararosaniline pamoate to Wolbachia-infected fruit flies for 3 days and analyzed Wolbachia titer in ovarian tissues. This was performed through use of confocal microscopy and image-based bacterial quantification software.

Row | SMILES | cytoplasmic DAPI (Wolbachia) fluorescence per cell / hit in tissue culture screen [1] | number of Wolbachia carried by host, worms killed by drug vs untreated worms [2] | cytoplasmic DAPI (Wolbachia) fluorescence per cell / hit in tissue culture screen ([1]; listed as pararosanaline pamoate) | time until worms ceased movement ([3]; 100 uM in tissue culture media, 12-well plates) [h] | worm viability after treatment (FIG. 3) ([3]; drug feeding assay) | Wolbachia titer in Drosophila oocytes (FIG. 5) ([4]; average quantity within a single focal plane of oocytes) | Wolbachia titer relative to control levels ([4]; fed for 3 days, ovarian tissues (oocytes), preliminary) [%]
1 | CC(C)(C)CC(C)(C)c1ccc(O)c(Cc2ccc(Cl)cc2Cl)c1 [Clofoctol] | identified by the screening methods of the invention |  |  |  |  |  | 
2 | N=C1C=CC(=C(c2ccc(N)cc2)c2ccc(N)cc2)C=C1 [Pararosaniline Pamoate] | identified by the screening methods of the invention | no visible difference | found in the pilot tissue culture screen | ≤ 2 | Inviable | reduced | 60
3 | COC(=O)[C@H]1[C@H]2C[C@H]3c4[nH]c5cc(OC)ccc5c4CCN3C[C@H]2C[C@@H](OC(=O)c2cc(OC)c(OC)c(OC)c2)[C@@H]1OC [Isoreserpine] | identified by the screening methods of the invention |  |  |  |  |  | 
4 | Cc1ncc(CO)c(CO)c1O.Cl [pyroxidine HCl] | found in the pilot tissue culture screen |  |  |  |  |  | 
